Data on 3 compounds can be found in BindingDB's records for doi:10.1021/jm0706867 (St. Jude Research Hospital, 2007).

A value given as a limit tells only on which side of the number the result lay.

Sequence of CES2 (O00748 whole entry, looked up): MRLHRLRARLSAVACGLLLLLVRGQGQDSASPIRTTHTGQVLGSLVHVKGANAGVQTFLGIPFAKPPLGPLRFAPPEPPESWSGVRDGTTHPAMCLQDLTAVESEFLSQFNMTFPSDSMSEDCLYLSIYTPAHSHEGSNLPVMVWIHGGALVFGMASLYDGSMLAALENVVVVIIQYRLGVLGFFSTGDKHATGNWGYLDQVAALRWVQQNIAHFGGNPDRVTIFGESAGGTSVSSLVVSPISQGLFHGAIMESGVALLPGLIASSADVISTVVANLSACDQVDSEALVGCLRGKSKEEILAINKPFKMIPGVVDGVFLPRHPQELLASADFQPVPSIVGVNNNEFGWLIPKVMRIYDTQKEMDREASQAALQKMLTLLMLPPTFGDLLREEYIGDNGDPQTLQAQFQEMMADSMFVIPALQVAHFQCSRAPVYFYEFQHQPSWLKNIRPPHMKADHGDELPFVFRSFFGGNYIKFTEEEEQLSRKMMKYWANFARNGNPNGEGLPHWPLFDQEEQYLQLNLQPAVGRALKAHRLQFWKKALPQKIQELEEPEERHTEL

The test addresses CES2 (Homo sapiens, UniProt O00748). Put plainly: Enzyme Inhibition Assay. The following applies: pH 7.4; 25 °C. The protocol:
CE inhibition was determined using a spectrophotometric multiwell plate assay with o-NPA as a substrate. The rate of change in absorbance at 420 nm was measured at 15 sec intervals for 5 min and compared to wells containing no inhibitor. […] Further analysis of inhibitors was performed in condition that inhibitor concentrations ranged from 1 pM to 100 uM. Data were fitted to the equation. Examination of curve fits to identify the best model for enzyme inhibition. Ki values were then calculated from the equation predicted by Prism to be the best fit for the experimental data.
On to `COc1ccccc1C(=O)C(=O)c1ccccc1OC` [1,2-bis(2-methoxyphenyl)ethane-1,2-dione], for which the Ki (as a rule, a dissociation constant, usually derived from enzyme kinetics or from competition with a known ligand) is more than 100 µM.
Under `O=C1C(=O)c2cccc3c2N(CCC3)C1=O` [1-azatricyclo[7.3.1.0^{5,13}]trideca-5,7,9(13)-triene-2,3,4-trione] stands more than 100 µM; under `O=C1C(=O)c2cccnc2-c2ncccc21` [5,6-dihydro-1=10-phenantroline-5,6-dione], more than 100 µM.
